Experiments:
human S1P3 = human S1P3 (Homo sapiens, UniProt Q99500); assay: Internalization effect experiment of S1P3 (CHO-S cells); format: cell-based
Procedure: CHO—S cells bearing human S1P1 with Myc tag were harvested and then adjusted to a density of one million cells per mL by Dulbecco's modified Eagle's medium (DMEM). […] After incubation, the mixture was centrifuged at 800 RPM for 5 minutes to obtain the cells. The cells were resuspended in FACS buffer (PBS containing 1% BSA), and Myc antibody labelled with fluorescein isothiocyanate (FITC) (from Californian Miltenyi Biotec GmbH, USA) was added in and incubated for 1 hour on ice. The cells were washed, resuspended in pre-cooled FACS buffer and analysed by FACS Calibur flow cytometry.
CHO—S cells expressing human S1P3 were used to perform internalization detection test. Besides cells, experimental method was the same with the method of the internalized detection experiment of S1P1.

[1] = In vivo pharmacokinetic experiment, oral administration; parameters: species or system Sprague Dawley rats; settings: for half-life: po, 3 mg/kg
Procedure: (§1) In this Example, the pharmacokinetic properties of compounds 1, 2, 3, 4 and 5 were evaluated via. i.v. and p.o. dosing to Sprague Dawley rats.
(§2) Experimental animals used in this Example and hereinafter were male SD rats of 7-9 weeks old, with body weight ranging from 186 to 231 g, which were purchased from Beijing Vital River Laboratory Animal Technology Co., Ltd. The animals were quarantined by veterinarian for 5 days after purchase, then animals had passed quarantine inspection were selected to be tested under SPE conditions, wherein the tested animals are assigned into 3 rats per group as follows.
Oral administration group: 2.74 mg of each of compounds 1-5 was respectively prepared into a solution of 0.3 mg/mL by using 9.113 mL 0.5% CMC-Na as a diluent. Each solution was vortexed 1-2 mins after mixed fully, and then was ultrasonically treated for 20-30 mins until a uniform suspension was obtained. The uniform suspension was used as medicine administrated to oral administration group, and the administration was conducted with a dose of 10 mL/kg body weight of each rat.
(§3) For both oral administration group and intravenous administration group, blood samples were collected at 0.0833 h (5 min), 0.25 h (15 min), 0.5 h, 1 h, 2 h, 4 h, 8 h, and 24 h after administration. After isoflurane anesthesia 0.3 mL whole blood was collected from orbital venous plexus of the animals at each time point. The animals would be euthanized after all samples were collected.
(§4) The collected blood samples were placed in EP tubes containing heparin sodium (about 10 μl, 1000 IU/mL), which were then placed in trash ice immediately, and centrifuged at 4,000 rpm and a low temperature (4° C.) for 5 minutes. The plasma was isolated rapidly and then stored at −20° C. until analysis.
(§5) The concentration of each compound in blood was measured by LC-MS/MS-001 (Q-trap-3200) with osalmide as internal standard material, as follows. 24 μL blank plasma was added into 6 μL plasma sample (5 times of dilution), and then a solution of acetonitrile containing 150 μL internal standard material (osalmide in 100 μg/mL) was added in. The mixture was shaken for 5 minutes, and then centrifuged at 4,000 rpm for 5 minutes. 2 μL of the obtained sample was implanted into LC-MS/MS for analysis. As for undiluted plasma sample, 30 μL of it was added into a solution of acetonitrile containing 150 μL internal standard material (osalmide in 100 μg/mL). The mixture was shaken for 5 minutes, and then centrifuged at 4,000 rpm for 5 minutes. 2 μL of the obtained sample was implanted into LC-MS/MS for analysis.
(§6) As for data analysis, WinNolin (V6.2) non-compartment model (NCA) was used for calculating main metabolic pharmacokinetic parameters including t1/2, AUC(0−t), AUCinf, V, Cl, MRT, etc., and Microsoft Office EXCEL was used for calculating mean values, standard deviations and coefficients of variation.

[2] = tested on: experimental autoimmune encephalomyelitis (EAE); assay: Experimental autoimmune encephalomyelitis (EAE) model; format: in vivo; settings: oral, 0.03, 0.1 and 1 mg/kg, Day 0 to Day 30, C57BL/6 mice
[3] = In vivo pharmacokinetic experiment, intravenous administration; parameters: species or system Sprague Dawley rats
Procedure: as §1, §2
Intravenous administration group: 1.61 mg of each of compounds 1-5 was respectively prepared into a solution of 1 mg/mL by using 1.610 mL 10% HP-β-CD as a diluent. Each solution was vortexed 1-2 mins after mixed fully, and then was ultrasonically treated for 28-30 mins. The obtained solution was used as medicine administrated to intravenous administration group, and the administration was conducted with a dose of 1 mL/kg body weight of each rat.
as §3, §4, §5, §6

[4] = tested on: Collagen Type II-Induced Arthritis; assay: Collagen type II-induced arthritis (rat CIA model); format: in vivo, Lewis rats; settings: oral, 1 mg/kg
Procedure: To perform the testing, Lewis rats were induced to develop the disease as follows. Rats were anesthetized with isoflurane and were injected intradermally with a total of 0.5 mL CII/CFA emulsion. The emulsion was injected at 3 sites, one site at the base of the tail (0.1 mL), and the other two sites (0.2 mL/site) on the back of the rat near to the base of the tail. An identical booster injection was given i.d. at 7 days after the primary immunization avoiding previous injection sites.
The positive control group was given TOFACITINIB orally on day 12 after sensitization. The severity of arthritis in four paws was scored 2 times per week starting on day 7 after sensitization. The criteria was as follows: score 0: No evidence of erythema and swelling; score 1: Erythema and mild swelling confined to the mid-foot (tarsals) or ankle joint; score 2: Erythema and mild swelling extending from the ankle to the mid-foot; score 3: Erythema and moderate swelling extending from the ankle to the metatarsal joints; score 4: Erythema and severe swelling encompass the ankle, foot, and digits. Joint swelling, measured by the volume of hind paws using Plethysmometer, was determined on Day 0, and then 2 times per week from Day 7 to Day 28. Destruction of the joint was determined by X-Ray examination on Day 28.

human S1P1 = molecular target: T1, human S1P1 (Homo sapiens, UniProt P21453); assay: Internalization effect experiment on S1P1 (CHO-S cells, Myc tag, flow cytometry); format: cell-based
T1 construct: expressed in transfected cells; host or cells: CHO-S cells
Source text: It is well known that S1P1 small molecule agonists can prevent lymphocytes from entering the peripheral circulation by inducing internalization of S1P1 on cell surface. In order to determine whether the compounds provided by present invention have an activity of inducing S1P1 internalization, CHO—S cells expressing human S1P1, to replace the lymphocytes, are used as detection system of S1P1 internalization. For ease of monitoring the S1P1 on cell surface, a Myc tag is fused to N-terminal of S1P1, thus the expression of S1P1 is analyzed by flow cytometry after incubating the cells with fluorescent-labeled antibody against the Myc tag.
A 10 mM stock solution was prepared by dissolving compound 2 provided by the present invention in dimethyl sulfoxide (DMSO), and then the stock solution was diluted to different concentrations as desired with DMEM. CHO—S cells bearing human S1P1 with Myc tag were harvested and then adjusted to a density of one million cells per mL by Dulbecco's modified Eagle's medium (DMEM). Different concentrations of Compound 2 diluted in an equal volume were mixed and the cell suspension and then incubated at 37° C. for 1 hour. After incubation, the mixture was centrifuged at 800 RPM for 5 minutes to obtain the cells. The cells were resuspended in FACS buffer (PBS containing 1% BSA), and Myc antibody labelled with fluorescein isothiocyanate (FITC) (from Californian Miltenyi Biotec GmbH, USA) was added in and incubated for 1 hour on ice. The cells were washed, resuspended in pre-cooled FACS buffer and analysed by FACS Calibur flow cytometry.

[5] = male, Sprague-Dawley, rat, plasma, oral administration (3 mg/kg), SD rats
[6] = intravenous administration, rats, in words
[7] = male, Sprague-Dawley, rat, plasma, intravenous administration (1 mg/kg), SD rats

human S1P3, sequence (Q99500 whole entry): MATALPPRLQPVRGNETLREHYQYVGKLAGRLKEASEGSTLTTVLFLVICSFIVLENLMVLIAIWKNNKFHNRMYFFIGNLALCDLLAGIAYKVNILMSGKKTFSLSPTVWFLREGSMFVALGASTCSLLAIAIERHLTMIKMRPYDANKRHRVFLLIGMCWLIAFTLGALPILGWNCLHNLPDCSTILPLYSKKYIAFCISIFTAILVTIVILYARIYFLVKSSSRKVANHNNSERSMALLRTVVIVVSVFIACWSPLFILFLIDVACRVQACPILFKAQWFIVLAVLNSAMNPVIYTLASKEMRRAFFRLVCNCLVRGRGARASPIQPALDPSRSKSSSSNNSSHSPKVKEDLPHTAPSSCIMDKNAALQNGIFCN
T1 sequence (P21453 whole entry): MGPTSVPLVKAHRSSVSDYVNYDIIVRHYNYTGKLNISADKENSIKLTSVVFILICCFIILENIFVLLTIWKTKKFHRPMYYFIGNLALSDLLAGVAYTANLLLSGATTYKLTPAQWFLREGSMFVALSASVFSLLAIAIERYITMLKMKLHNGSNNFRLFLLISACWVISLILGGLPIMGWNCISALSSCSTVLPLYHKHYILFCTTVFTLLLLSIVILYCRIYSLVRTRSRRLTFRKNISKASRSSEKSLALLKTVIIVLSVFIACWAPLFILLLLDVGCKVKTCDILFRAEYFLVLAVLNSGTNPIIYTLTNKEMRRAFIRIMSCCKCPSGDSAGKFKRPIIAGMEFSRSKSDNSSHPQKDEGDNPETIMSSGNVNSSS

EC50 (human S1P3; CHO-S cells expressing human S1P3, read-out: Receptor Internalization (EC50) S1P3): > 1000 nM | half-life shortening relative to compound 1 ([1]; after oral administration, rats): ~50% | half-life ([1]; male, Sprague-Dawley, rat, plasma, after oral administration, rats, read-out: terminal half-life (converted)): < 5.5 h | half-life ([1]; male, Sprague-Dawley, rat, plasma, oral administration (3 mg/kg), SD rats, read-out: T½ (converted)): 5.47 ± 0.63 h | AUC(0-inf) [1, 5]: 3830 ± 184 ng·h/mL | Cmax [1, 5]: 341 ± 36.2 ng/mL | Tmax [1, 5]: 2 h | F ([1]; oral administration (3 mg/kg), SD rats): 63.4% | elimination speed after the highest concentration, compared with compounds 1 and 5 ([1]; oral administration, rats, FIGS. 1A and 1B, in words): accelerated obviously | mean residence time (MRT) compared with compound 1 [3, 6]: reduced significantly | terminal half-life compared with compound 1 [3, 6]: reduced significantly | AUC(0-inf) [3, 7]: 2010 ± 146 ng·h/mL | MRT inf [3, 7]: 6.28 ± 0.44 h | clearance [3, 7]: 8.32 mL/min/kg | half-life ([3]; male, Sprague-Dawley, rat, plasma, intravenous administration (1 mg/kg), SD rats, read-out: T½ (converted)): 5.47 ± 0.42 h | Vd ([3]; male, Sprague-Dawley, rat, plasma, intravenous administration (1 mg/kg), SD rats, read-out: Vss): 3.12 ± 0.101 L/kg | EC50 (human S1P1; CHO-S cells expressing human S1P1, 1 hour at 37° C., read-out: Receptor Internalization (EC50) S1P1): 9.83 nM | activity of inducing S1P1 internalization (human S1P1; CHO-S cells expressing human S1P1, in words): dose-dependent manner
Compound: CC(C)Cc1ccc(-c2nc(-c3ccc(CN4CC(C(=O)O)C4)c(F)c3)no2)cc1 [Compound 2, 1-{2-fluoro-4-[5-(4-isobutylphenyl)-1,2,4-oxadiazol-3-yl]-benzyl}-3-azetidine carboxylic acid]
internalization activation effect on S1P3 subtype (human S1P3; CHO-S cells expressing human S1P3, in words): no internalization activation effect on S1P3 subtype | development of EAE (clinical score) [2]: effectively inhibited development of EAE | development of arthritis based on joint swelling ([4]; Lewis rats, FIG. 5): effective in inhibiting the development of arthritis | development of arthritis based on destruction of joint structure ([4]; X-Ray on Day 28, Lewis rats, FIG. 6): effective in inhibiting the development of arthritis

From patent US10280158B2, “Immune adjustment compound, use thereof and pharmaceutical composition comprising same” (SUZHOU CONNECT BIOPHARMACEUTICALS, LTD., priority 2013, dated 2019)
